Experimental findings from publication PMC6657216, “Defining the Contribution of CYP1A1 and CYP1A2 to Drug Metabolism Using Humanized CYP1A1/1A2 and Cyp1a1/Cyp1a2 Knockout Mice” (Drug Metabolism and Disposition, 2019) are described below.

Data set [1] has as its system liver microsomes from vehicle-treated hCYP1A1/1A2 mice. Description: MROD in liver microsomes from vehicle-treated hCYP1A1/1A2 mice with quinidine. In kind it is biochemical, mouse. The following applies: 200 μM quinidine.
Procedure: (§2) Protein enzyme/concentrations were 3.46 pmol/ml for recombinant human CYP1A1, 10.8 pmol/ml for recombinant human CYP1A2, 0.05 mg protein/ml for liver microsomes from TCDD-treated hCYP1A1/1A2 mice, and 0.25 mg protein/ml for liver microsomes from TCDD-treated Cyp1 KO mice and vehicle-treated hCYP1A1/1A2 mice. Where needed, total protein concentration in the reaction mixtures was adjusted using Control Bactosomes (Cypex), so all reactions (including those with the recombinant cytochrome P450s) were carried out at a total protein concentration of 0.25 mg protein/ml. Generation of fluorescent product was registered in a kinetic mode (excitation filter, 530 nm; emission filter, 584 nm). Slopes of the linear part of the kinetic curves were calculated using Ascent Software version 2.4.1 (Labsystems). For each well with the reaction medium, there was a control well containing the reaction mixture with resorufin (40 pmol). Before addition of NADPH to the reaction wells, fluorescence was recorded both from the reaction and from the control wells. The average fluorescence was calculated, and the difference between wells with and without resorufin was used for the conversion of the relative fluorescence units to the picomoles of the reaction product.
The test system of data set [2] is EROD activity, non-Cyp1a component of the liver microsomes. Description: in vitro. The following applies: mouse, pH 7.4.
Procedure: as §2
Data set [3] deals with T1, recombinant human CYP1A1 (Homo sapiens, UniProt P04798).
T1 sequence (P04798 1-512): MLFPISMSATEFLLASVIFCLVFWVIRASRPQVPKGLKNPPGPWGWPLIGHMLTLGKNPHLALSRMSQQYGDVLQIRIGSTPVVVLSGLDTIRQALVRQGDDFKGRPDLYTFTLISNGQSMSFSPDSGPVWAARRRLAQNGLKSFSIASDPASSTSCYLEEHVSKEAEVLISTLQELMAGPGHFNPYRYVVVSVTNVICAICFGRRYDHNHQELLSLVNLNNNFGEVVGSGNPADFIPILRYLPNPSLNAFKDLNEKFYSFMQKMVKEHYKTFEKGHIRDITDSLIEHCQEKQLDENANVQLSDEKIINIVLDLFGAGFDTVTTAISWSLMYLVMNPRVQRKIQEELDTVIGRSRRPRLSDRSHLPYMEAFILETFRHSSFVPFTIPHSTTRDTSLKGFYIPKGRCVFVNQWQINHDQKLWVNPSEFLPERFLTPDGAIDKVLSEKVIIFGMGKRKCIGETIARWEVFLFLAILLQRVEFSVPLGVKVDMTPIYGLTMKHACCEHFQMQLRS
The data set is described as follows: MROD by recombinant human CYP1A1, inhibition by quinidine. The following applies: rCYP1A1.
Procedure: (§3) Slopes of the linear part of the kinetic curves were calculated using Ascent Software version 2.4.1 (Labsystems).
(§4) Where needed, total protein concentration in the reaction mixtures was adjusted using Control Bactosomes (Cypex), so all reactions (including those with the recombinant cytochrome P450s) were carried out at a total protein concentration of 0.25 mg protein/ml. […] Slopes of the linear part of the kinetic curves were calculated using Ascent Software version 2.4.1 (Labsystems). For each well with the reaction medium, there was a control well containing the reaction mixture with resorufin (40 pmol). Before addition of NADPH to the reaction wells, fluorescence was recorded both from the reaction and from the control wells. The average fluorescence was calculated, and the difference between wells with and without resorufin was used for the conversion of the relative fluorescence units to the picomoles of the reaction product.

The test system of data set [4] is EROD activity of liver microsomes from vehicle-treated hCYP1A1/1A2 mice. The data set is described as follows: EROD in liver microsomes from vehicle-treated hCYP1A1/1A2 mice with quinidine. Particulars: hCYP1A1/1A2 humanized, mouse, pH 7.4. The data set is classed as biochemical.
Procedure: as §2
For data set [5], the target named is T2, recombinant human CYP1A2 (Homo sapiens, UniProt P05177).
T2 sequence (P05177 1-516): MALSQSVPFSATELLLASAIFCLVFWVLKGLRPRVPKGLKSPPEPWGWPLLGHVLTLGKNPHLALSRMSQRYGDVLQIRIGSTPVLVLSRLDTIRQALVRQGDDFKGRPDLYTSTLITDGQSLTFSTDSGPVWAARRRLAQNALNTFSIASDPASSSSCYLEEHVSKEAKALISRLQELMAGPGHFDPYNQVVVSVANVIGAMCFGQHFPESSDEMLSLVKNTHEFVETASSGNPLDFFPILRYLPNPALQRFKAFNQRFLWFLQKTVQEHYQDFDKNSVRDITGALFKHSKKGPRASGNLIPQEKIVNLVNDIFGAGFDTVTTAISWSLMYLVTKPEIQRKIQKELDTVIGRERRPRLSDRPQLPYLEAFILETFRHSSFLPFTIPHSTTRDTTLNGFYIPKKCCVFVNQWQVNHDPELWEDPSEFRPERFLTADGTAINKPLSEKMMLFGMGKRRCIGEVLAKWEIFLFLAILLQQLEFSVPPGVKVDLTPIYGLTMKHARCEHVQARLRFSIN
Particulars: quinidine 0, 30, 200 μM.
Procedure: as §2

For data set [6], the system named is MROD activity, non-Cyp1a component of the liver microsomes. Description: in vitro. The following applies: mouse, pH 7.4.
Procedure: as §2
Data set [7] addresses T1, recombinant human CYP1A1. Description: biochemical.
Procedure: as §3, §4
The target of data set [8] is T2, recombinant human CYP1A2. The data set is described as follows: MROD by recombinant human CYP1A2, inhibition by quinidine. Particulars: quinidine 0, 30, 200 μM.
Procedure: as §3, §4
Data set [9] has as its target T1, recombinant human CYP1A1. The data set is described as follows: EROD by recombinant human CYP1A1 with and without quinidine.
Procedure: as §4
The nature of data set [10]: Microsomal stability in pooled human liver microsomes. As to the method: (§1) The reaction was started by addition of 200 μl of NADPH to the remaining mixture of ramelteon with microsomes, and 100-μl aliquots were taken at 1, 2, 5, 10, 15, 20, and 30 minutes after the reaction start; mixed with an equal volume of ice-cold methanol containing the internal standard; incubated on ice for at least 20 minutes; and centrifuged for 15 minutes at 16,000 rcf and +4°C on Centrifuge 5415 R (Eppendorf, Hamburg, Germany). Control incubations were carried out without the cofactor or microsomes. The concentration of ramelteon in the supernatant was measured by high-performance liquid chromatography–tandem mass spectrometry (MS/MS). Chromatographic separation was performed on a Prodigy Phenyl-3 column (5 μm, 50 × 2.0 mm; Phenomenex) using an injection volume of 10 μl and a run time of 7 minutes. Mobile phase consisted of 0.1% solutions of formic acid in water (solvent A) and acetonitrile (solvent B). For elution, a linear gradient from 20% to 60% of solvent B in 4 minutes was used, followed by 3-minute equilibration at 20% B. The multiple reaction monitoring parameters for ramelteon and tacrine were 260.28, 199.2 (precursor ion) and 204.21, 171.11 (product ion), respectively. The concentrations of ramelteon were calculated from the calibration curve.

Data set [11] in a line: Microsomal stability in mouse liver microsomes (WT, Cyp1a KO, hCYP1A1/1A2). As to the method: as §1

As to `C=C[C@H]1C[N@@]2CC[C@H]1C[C@@H]2[C@@H](O)c1ccnc2ccc(OC)cc12` [quinidine], in data set [1], the “effect on MROD” value was “not affected”. Further, the Ki in [2] (Cyp1a KO) is greater than 200 µM; in data set [2], 422 ± 18 µM; in data set [6] (Cyp1a KO) it was greater than 200 µM; in data set [6], 272 ± 28 µM; at recombinant human CYP1A1 [7] it was 2.2 ± 0.18 µM; on recombinant human CYP1A1 [9], 3.3 ± 0.35 µM. Moreover, the “Quinidine Inhibition Type” value at recombinant human CYP1A1 [3] is reported as “Competitive”; on recombinant human CYP1A1 [9] (EROD, rCYP1A1), “Mixed”. This compound also returned an inhibition at 200 μM in data set [4] of roughly 20%. In addition, the “inhibition of EROD activity catalyzed by CYP1A2” value on recombinant human CYP1A2 [5] is listed as “did not inhibit”. In addition, the IC50 on recombinant human CYP1A1 [7] was found to be 5.8 µM. Moreover, the “inhibition of MROD activity catalyzed by CYP1A2” value at recombinant human CYP1A2 [8] is “did not inhibit”. The α at recombinant human CYP1A1 [9] (EROD, rCYP1A1, effect of inhibitor binding on substrate binding) was found to be 31 ± 8.
`CCC(=O)NCC[C@@H]1CCc2ccc3c(c21)CCO3` [ramelteon]: the “in vitro clearance relative to WT” value in data set [10] was roughly 70%; in data set [11] (Cyp1a KO mouse liver microsomes), roughly 83%; in data set [11] (hCYP1A1/1A2 mouse liver microsomes), roughly 190%. The “contribution of mouse Cyp1a2 to clearance” value in data set [11] (WT liver microsomes) was 17%. Further, the “fraction metabolized by Cyp1a2” value in data set [11] (WT mice liver microsomes, eqs. 15 and 16) was roughly 0.17. The “fraction metabolized by CYP1A2” value in [11] (hCYP1A1/1A2 mice liver microsomes, eqs. 15 and 16) is 0.56. Moreover, in data set [11] (liver microsomes of hCYP1A1/1A2 mice), the “contribution of CYP1A2 to clearance” value is recorded as 56%.
